Measurements taken from patent US20060148763A1, “Compounds and methods for regulating triglyceride levels” (priority 2005, published 2006).

Tested on: serum triglyceride levels
Test: Rabbit hypercholesteremic model (2% cholesterol diet, 7 weeks): serum triglycerides
Type: in vivo, Male New Zealand white rabbits
Description: The anti-atherogenic effects of P5P alone and in combination with simvastatin in a rabbit hypercholesteremic model were determined. The study compared the effects of P5P and simvastatin alone and in combination on atherosclerotic lesion formation, lipid profile (total cholesterol, LDL, HDL, triglycerides and oxidized LDL), homocysteine levels and various markers of inflammation (CRP, IL-1β, IL-6, IFN-γ and TNF-α).
Animals—Male New Zealand white rabbits 2.0-3.0 kg.
Animal Feed—The normocholesterol diet is Co-op Complete Rabbit Feed manufactured by Federated Co-operatives Limited (Saskatchewan). The 2% cholesterol diet is Test Diet 0009459 MRab/2% Chol 3/16 manufactured by Purina Mills (USA).
The rabbits were fed the normocholesterol and 2% cholesterol diet ad libitum. All animals received a timothy cube after blood sampling. […]
Group 3: Hypercholesterol diet+P5P 10 mg/kg/day
Group 4: Hypercholesterol diet+simvastatin 5 mg/kg/day
Group 5: Hypercholesterol diet+P5P 10 mg/kg/day+simvastatin 5 mg/kg/day
The rabbits were fed a normocholesterol or hypercholesterol diet for a total of 7 weeks. The normocholesterol rabbits were treated once per day with 1 ml of ethanol and 5 ml of RO water via a nasogastric tube. The hypercholesterol animals were treated once per day with either P5P (10 mg/kg), simvastatin (5 mg/kg) or a combination of P5P and simvastatin (P5P 10 mg/kg; simvastatin 5 mg/kg) via a nasogastric tube. The P5P was dissolved in 5 ml of 0.05 N NaOH so that the pH of the solution is approximately 7. The simvastatin was dissolved in 1 ml of anhydrous ethanol.
Five ml of blood was collected from the marginal ear vein of the rabbits at 0, 2, 4 and 6 weeks. Prior to blood collection the animals were sedated with 1 mg/kg of acepromazine. Following collection, the serum was separated. The serum is aliquoted (500 μl) and frozen at −80° C. until used for the assaying various lipids (total cholesterol, LDL, HDL, triglycerides, oxidized LDL) and cytokines (CRP, IL-1β, IL-6, IFN-γ and TNF-α).
At 7 weeks, the animals were anesthetized and 10 ml of blood was collected. Then the animals were euthanized, and the heart and thoracic aorta removed. The hearts and aortas were frozen in liquid nitrogen or an ethanol dry ice bath and stored at −80° C. until analyzed.
Test Articles—P5P (pyridoxal 5′-phosphate monohydrate) was purchased from Sigma (P82870). Simvastatin is obtained from ACIC Fine Chemicals Inc. Two test compound vials were provided for each animal for each day. The first vial (small) was diluted in 1 ml of anhydrous ethanol. The second vial was diluted in either 5 ml of RO water or 5 ml of 0.05 N NaOH. The diluent for each vial was clearly marked on the vial. The test solutions were prepared fresh each day just before they were administered to the animals. The stock P5P was stored in a refrigerator at 4° C. under low light conditions. The simvastatin was stored following the manufacture recommendations. The individual test vials were stored in a refrigerator at 4° C. under low light conditions.
Test Article(s) Dose, Route of Administration and Duration—The rabbits were treated orally with the drugs, once per day for a total of 7 weeks. The contents of vial one (small; 1 ml) were given to the animals first, followed by the contents of vial 2 (large; 5 ml). The test compound treatments were followed by a 5 ml RO water chaser.

[1] = hypercholesterol diet, n = 5, P5P 10 mg/kg/day, simvastatin 5 mg/kg/day oral
[2] = rabbits fed the hypercholesterol diet, 7 weeks

Cc1ncc(COP(=O)(O)O)c(C=O)c1O [P5P, pyridoxal-5′-phosphate]
average serum triglyceride levels as fraction of the levels observed in the control rabbits (end of the 7 week study period): about ⅓ | Triglycerides, Week 2 [1]: 1.244 mmol/L | Triglycerides, Week 4 [1]: 1.530 mmol/L | Triglycerides, Week 6 [1]: 1.066 mmol/L | Triglycerides, Week 7 (hypercholesterol diet, n = 5, P5P 10 mg/kg/day, simvastatin 5 mg/kg/day oral, end of study): 1.038 mmol/L | Triglycerides, Week 0 (hypercholesterol diet, n = 5, P5P 10 mg/kg/day, simvastatin 5 mg/kg/day oral, start of study): 1.168 mmol/L | comparison of serum triglyceride reduction between treatments [2]: more effective than simvastatin treatment | effect on serum triglyceride levels vs untreated control rabbits [2]: effective in reducing serum triglyceride levels
